Columns and labels:
Experiment in all cases: Test C pre-/postemergence herbicide test
[1] = test system: bermudagrass; format: in vivo, Cynodon dactylon; conditions: Cynodon dactylon, pre-emergence, 312 h
Method in brief: (§1)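 Preemergence: seeds planted and treated with compound in non-phytotoxic solvent with surfactant; postemergence: plants at 2 to 18 cm (1- to 4-leaf stage) sprayed likewise. Kept in greenhouse 12 to 14 days, then visually rated against controls, 0 (no effect) to 100 (complete control).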

[2] = test system: cocklebur; format: in vivo, Xanthium strumarium; conditions: Xanthium strumarium, pre-emergence, 312 h
Method in brief: as §1

[3] = test system: corn; format: in vivo, Zea mays
Method in brief: as §1

[4] = test system: woolly cupgrass; format: in vivo, Eriochloa villosa
Method in brief: as §1

[5] = test system: giant foxtail; format: in vivo, Setaria faberi
Method in brief: as §1

[6] = test system: goosegrass; format: in vivo, Eleusine indica
Method in brief: as §1

[7] = test system: kochia; format: in vivo, Kochia scoparia
Method in brief: as §1

[8] = test system: morningglory; format: in vivo, Ipomoea coccinea
Method in brief: as §1

[9] = test system: yellow nutsedge; format: in vivo, Cyperus esculentus
Method in brief: as §1

[10] = test system: soybean; format: in vivo, Glycine max
Method in brief: as §1

[11] = test system: velvetleaf; format: in vivo, Abutilon theophrasti
Method in brief: as §1

[12] = Preemergence, 500 g ai/ha, scale 0 to 100, 0 no effect, 100 complete control

## CCc1nn(C(C)(C)C)cc1C(=O)Nc1cccc(C(=O)N(CC)CC)c1 [Compound 182, N-[3-[(diethylamino)carbonyl]phenyl]-1-(1,1-dimethylethyl)-3-ethyl-1H-pyrazole-4-carboxamide]
[1]; 62 g ai/ha, preemergence, scale 0 to 100, 0 no effect, 100 complete control, read-out: Plant response rating, Bermudagrass
  pest or weed control at 62 g/ha: 20%
[1]; 125 g ai/ha, scale 0 (no effect) to 100 (complete control), visual, 12 to 14 days, read-out: Plant response rating, Bermudagrass
  pest or weed control at 125 g/ha: 75%
[1]; 250 g ai/ha, scale 0 to 100 (0 no effect, 100 complete control), visual, 12 to 14 days, read-out: Plant response rating, Bermudagrass
  pest or weed control at 250 g/ha: 90%
[1]; Preemergence, 500 g ai/ha, scale 0 to 100, 0 no effect, 100 complete control, read-out: Bermudagrass plant response rating
  pest or weed control at 500 g/ha: 95%
[2]; 62 g ai/ha, preemergence, scale 0 to 100, read-out: Plant response rating, Cocklebur
  pest or weed control at 62 g/ha: 0%
[2]; 125 g ai/ha, scale 0 (no effect) to 100 (complete control), visual, 12 to 14 days, read-out: Plant response rating, Cocklebur
  pest or weed control at 125 g/ha: 0%
[2]; 250 g ai/ha, scale 0 to 100 (0 no effect, 100 complete control), visual, 12 to 14 days, read-out: Plant response rating, Cocklebur
  pest or weed control at 250 g/ha: 0%
[2]; Preemergence, 500 g ai/ha, scale 0 to 100, 0 no effect, 100 complete control, read-out: Cocklebur plant response rating
  pest or weed control at 500 g/ha: 0%
[3]; [12]
  Corn plant response rating: 0
[3]; Zea mays, pre-emergence, 312 h, 62 g ai/ha, preemergence, scale 0 to 100
  Corn plant response rating (crop injury, 0 = no effect, 100 = complete kill) at 62 g/ha: 0%
[3]; Zea mays, pre-emergence, 312 h, 125 g ai/ha, scale 0 (no effect) to 100 (complete control), visual, 12 to 14 days
  Corn plant response rating (crop injury, 0 = no effect, 100 = complete kill) at 125 g/ha: 0%
[3]; Zea mays, pre-emergence, 312 h, 250 g ai/ha, scale 0 to 100 (0 no effect, 100 complete control), visual, 12 to 14 days
  Corn plant response rating (crop injury, 0 = no effect, 100 = complete kill) at 250 g/ha: 0%
[4]; Eriochloa villosa, pre-emergence, 312 h, 62 g ai/ha, preemergence, scale 0 to 100, read-out: Plant response rating, Cupgrass, Woolly
  pest or weed control at 62 g/ha: 0%
[4]; Eriochloa villosa, pre-emergence, 312 h, 125 g ai/ha, scale 0 (no effect) to 100 (complete control), visual, 12 to 14 days, read-out: Plant response rating, Cupgrass, Woolly
  pest or weed control at 125 g/ha: 0%
[4]; Eriochloa villosa, pre-emergence, 312 h, 250 g ai/ha, scale 0 to 100 (0 no effect, 100 complete control), visual, 12 to 14 days, read-out: Plant response rating, Cupgrass, Woolly
  pest or weed control at 250 g/ha: 0%
[4]; [12]
  Cupgrass, Woolly plant response rating: 0
[5]; [12]
  Foxtail, Giant plant response rating: 60
[5]; Setaria faberi, pre-emergence, 312 h, 62 g ai/ha, preemergence, scale 0 to 100, read-out: Plant response rating, Foxtail, Giant
  pest or weed control at 62 g/ha: 0%
[5]; Setaria faberi, pre-emergence, 312 h, 125 g ai/ha, scale 0 (no effect) to 100 (complete control), visual, 12 to 14 days, read-out: Plant response rating, Foxtail, Giant
  pest or weed control at 125 g/ha: 0%
[5]; Setaria faberi, pre-emergence, 312 h, 250 g ai/ha, scale 0 to 100 (0 no effect, 100 complete control), visual, 12 to 14 days, read-out: Plant response rating, Foxtail, Giant
  pest or weed control at 250 g/ha: 60%
[6]; Eleusine indica, pre-emergence, 312 h, 62 g ai/ha, preemergence, scale 0 to 100, read-out: Plant response rating, Goosegrass
  pest or weed control at 62 g/ha: 0%
[6]; Eleusine indica, pre-emergence, 312 h, 125 g ai/ha, scale 0 (no effect) to 100 (complete control), visual, 12 to 14 days, read-out: Plant response rating, Goosegrass
  pest or weed control at 125 g/ha: 25%
[6]; [12]
  Goosegrass plant response rating: 80
[7]; Bassia scoparia, pre-emergence, 62 g ai/ha, preemergence, scale 0 to 100, read-out: Plant response rating, Kochia
  pest or weed control at 62 g/ha: 0%
[7]; Bassia scoparia, pre-emergence, 125 g ai/ha, scale 0 (no effect) to 100 (complete control), visual, 12 to 14 days, read-out: Plant response rating, Kochia
  pest or weed control at 125 g/ha: 60%
[7]; [12]
  Kochia plant response rating: 90
[8]; Ipomoea, pre-emergence, 62 g ai/ha, preemergence, scale 0 to 100, read-out: Plant response rating, Morningglory
  pest or weed control at 62 g/ha: 0%
[8]; Ipomoea, pre-emergence, 125 g ai/ha, scale 0 (no effect) to 100 (complete control), visual, 12 to 14 days, read-out: Plant response rating, Morningglory
  pest or weed control at 125 g/ha: 15%
[8]; [12]
  Morningglory plant response rating: 100
[9]; Cyperus, pre-emergence, 62 g ai/ha, preemergence, scale 0 to 100, read-out: Plant response rating, Nutsedge, Yellow
  pest or weed control at 62 g/ha: 0%
[9]; Cyperus, pre-emergence, 125 g ai/ha, scale 0 (no effect) to 100 (complete control), visual, 12 to 14 days, read-out: Plant response rating, Nutsedge, Yellow
  pest or weed control at 125 g/ha: 0%
[9]; [12]
  Nutsedge, Yellow plant response rating: 0
[10]; Glycine max, pre-emergence, 62 g ai/ha, preemergence, scale 0 to 100, read-out: Plant response rating, Soybean
  plant injury at 62 g/ha: 0%
[10]; Glycine max, pre-emergence, 125 g ai/ha, scale 0 (no effect) to 100 (complete control), visual, 12 to 14 days, read-out: Plant response rating, Soybean
  plant injury at 125 g/ha: 0%
[10]; [12]
  Soybean plant response rating: 15
[11]; Abutilon theophrasti, pre-emergence, 62 g ai/ha, preemergence, scale 0 to 100, read-out: Plant response rating, Velvetleaf
  pest or weed control at 62 g/ha: 0%
[11]; Abutilon theophrasti, pre-emergence, 125 g ai/ha, scale 0 (no effect) to 100 (complete control), visual, 12 to 14 days, read-out: Plant response rating, Velvetleaf
  pest or weed control at 125 g/ha: 0%
[11]; [12]
  Velvetleaf plant response rating: 100

Reference: patent US20060069132A1, “Azolecarboxamide herbicides” (priority 2004, published 2006)
